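A five-concentration, 48-hour dose response in 96-well plates underlies each endpoint, interpolated linearly between surrounding concentrations. The concentration for 50% growth inhibition is given as GI50.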 The source made the active and inactive calls. Cut-off read from the data, not from the text of the source: active = GI50 up to about 1.1 µM and inactive = higher.
Legend:
Assay in all cases: DTP human tumour cell line panel, 48 h
COLO 205 = tested on: COLO 205
OVCAR-8 = tested on: OVCAR-8
NCI-H23 = tested on: NCI-H23
HCT-116 = tested on: HCT-116
SF-539 = tested on: SF-539
K562 = tested on: K562
HT-29 = tested on: HT-29
SW-620 = tested on: SW-620
KM12 = tested on: KM12
MOLT-4 = tested on: MOLT-4
UO-31 = tested on: UO-31
OVCAR-4 = tested on: OVCAR-4
OVCAR-5 = tested on: OVCAR-5
A498 = tested on: A498
U-251 = tested on: U-251
NCI-H522 = tested on: NCI-H522
LOX IMVI = tested on: LOX IMVI
SNB-75 = tested on: SNB-75
RPMI-8226 = tested on: RPMI-8226

Measured: GI50

CC/C(CC(=O)CCC(=O)Nc1c(C)cccc1C)=N\NC(=O)NN
inactive: COLO 205 > 100 µM | OVCAR-8 > 100 µM | NCI-H23 > 100 µM | HCT-116 > 100 µM | SF-539 > 100 µM | K562 > 100 µM | HT-29 > 100 µM | SW-620 > 100 µM | KM12 > 100 µM | MOLT-4 > 100 µM | UO-31 > 100 µM | OVCAR-4 > 100 µM | OVCAR-5 > 100 µM | A498 > 100 µM | U-251 > 100 µM

COc1cccc2nc3cc(C)c(C)cc3nc12
inactive: COLO 205 > 100 µM | NCI-H522 95.9 µM | OVCAR-8 > 100 µM | LOX IMVI 96.8 µM | NCI-H23 > 100 µM | HCT-116 > 100 µM | SF-539 > 100 µM | K562 > 100 µM | HT-29 > 100 µM | SW-620 > 100 µM | KM12 > 100 µM | MOLT-4 > 100 µM | UO-31 61.2 µM | OVCAR-4 > 100 µM | OVCAR-5 > 100 µM | A498 > 100 µM | U-251 > 100 µM | SNB-75 > 100 µM

CC1=C2C(=O)C3[C@@H](CCC4=CC(=O)CC[C@@]43C)C2CC[C@]12O[C@@H]1C[C@H](C)CN[C@H]1[C@H]2C (stereo not given in full)
inactive: COLO 205 73.6 µM | NCI-H522 21 µM | OVCAR-8 40.7 µM | LOX IMVI 29.6 µM | NCI-H23 37.6 µM | HCT-116 30.6 µM | SF-539 45.4 µM | K562 17.4 µM | HT-29 39.8 µM | SW-620 57.9 µM | KM12 30.1 µM | RPMI-8226 20.7 µM | MOLT-4 19.9 µM | UO-31 63.7 µM | OVCAR-4 > 100 µM | A498 32.3 µM | U-251 21.4 µM | SNB-75 72.8 µM

COC(=O)CCC1CCc2c(OC)ccc(O)c2C1=O (stereo not given)
inactive: COLO 205 > 100 µM | NCI-H522 > 100 µM | OVCAR-8 > 100 µM | LOX IMVI > 100 µM | NCI-H23 > 100 µM | HCT-116 > 100 µM | SF-539 > 100 µM | K562 > 100 µM | HT-29 > 100 µM | SW-620 > 100 µM | KM12 > 100 µM | RPMI-8226 > 100 µM | MOLT-4 > 100 µM | UO-31 55.8 µM | OVCAR-4 > 100 µM | A498 > 100 µM | U-251 > 100 µM | SNB-75 66.4 µM

COc1ccc(N[S+]([O-])c2ccccc2OC)cc1 (stereo not given)
inactive: COLO 205 24.4 µM | NCI-H522 5.26 µM | OVCAR-8 23.7 µM | LOX IMVI 10.3 µM | NCI-H23 40.8 µM | HCT-116 13.9 µM | SF-539 18.2 µM | K562 8.28 µM | HT-29 18.1 µM | SW-620 22.7 µM | KM12 4.98 µM | RPMI-8226 18.7 µM | MOLT-4 27 µM | UO-31 12.3 µM | OVCAR-4 53.7 µM | OVCAR-5 46.5 µM | U-251 12.5 µM

O=P(O)(CN1CCN(CP(=O)(O)c2ccccc2)CCN(CP(=O)(O)c2ccccc2)CC1)c1ccccc1
inactive: COLO 205 69.3 µM | OVCAR-8 > 100 µM | LOX IMVI 67.3 µM | NCI-H23 > 100 µM | HCT-116 36.8 µM | SF-539 67.1 µM | K562 > 100 µM | HT-29 26.1 µM | SW-620 45.6 µM | KM12 47.9 µM | RPMI-8226 51.4 µM | MOLT-4 26.4 µM | UO-31 > 100 µM | OVCAR-4 32.1 µM | OVCAR-5 > 100 µM | A498 9.16 µM | U-251 47.8 µM | SNB-75 > 100 µM

CC1=COC(C)(C=C(C#N)C#N)CC1 (stereo not given)
inactive: COLO 205 > 100 µM | OVCAR-8 52.6 µM | NCI-H23 61 µM | HCT-116 33 µM | SF-539 25.1 µM | K562 30.5 µM | HT-29 > 100 µM | SW-620 50.7 µM | KM12 34.8 µM | RPMI-8226 38.5 µM | MOLT-4 40.9 µM | UO-31 > 100 µM | OVCAR-4 > 100 µM | OVCAR-5 > 100 µM | A498 27 µM | U-251 > 100 µM | SNB-75 65.8 µM

Cc1cccc(C2SCc3nc4ccccc4n32)c1 (stereo not given)
inactive: COLO 205 > 10 µM | NCI-H522 17.7 µM | OVCAR-8 36.1 µM | LOX IMVI 28.6 µM | NCI-H23 > 10 µM | HCT-116 17.7 µM | SF-539 33.8 µM | K562 14.2 µM | HT-29 27.9 µM | SW-620 39.2 µM | KM12 19.8 µM | RPMI-8226 13.9 µM | MOLT-4 25.9 µM | OVCAR-4 28.2 µM | OVCAR-5 5.25 µM | U-251 19.7 µM | SNB-75 2 µM

CC1=CC(=O)CCC2(C)C1CC[C@@H]2OC=O (stereo not given in full)
inactive: COLO 205 > 100 µM | NCI-H522 > 100 µM | OVCAR-8 > 100 µM | LOX IMVI > 100 µM | NCI-H23 > 100 µM | HCT-116 > 100 µM | SF-539 > 100 µM | K562 > 100 µM | HT-29 > 100 µM | SW-620 > 100 µM | KM12 > 100 µM | RPMI-8226 > 100 µM | MOLT-4 > 100 µM | UO-31 > 100 µM | OVCAR-4 > 100 µM | OVCAR-5 > 100 µM | U-251 > 100 µM | SNB-75 93.5 µM

O=NN(CCCl)C(=O)NCc1ccc[n+]([O-])c1
inactive: COLO 205 > 100 µM | OVCAR-8 > 100 µM | LOX IMVI 70.6 µM | NCI-H23 > 100 µM | HCT-116 > 100 µM | SF-539 43.9 µM | K562 > 100 µM | HT-29 > 100 µM | SW-620 > 100 µM | KM12 > 100 µM | RPMI-8226 > 100 µM | MOLT-4 60.8 µM | OVCAR-4 > 100 µM | OVCAR-5 > 100 µM | U-251 43.2 µM

CC1OC(OC2C(OC(=O)[C@]34CCC(C)(C)CC3C3=CCC5[C@@]6(C)C[C@H](O)[C@H](OC7OC(CO)C(O)C(O)C7N)[C@@](C)(C(=O)O)C6CC[C@@]5(C)C3(C)CC4)OCC(O)C2O)C(O)C(O)C1OC1OCC(O)C(O)C1O (stereo not given in full)
inactive: COLO 205 > 100 µM | NCI-H522 > 100 µM | OVCAR-8 > 100 µM | LOX IMVI > 100 µM | NCI-H23 > 100 µM | SF-539 > 100 µM | K562 > 100 µM | HT-29 > 100 µM | SW-620 > 100 µM | KM12 > 100 µM | RPMI-8226 > 100 µM | MOLT-4 > 100 µM | UO-31 > 100 µM | OVCAR-5 > 100 µM | A498 > 100 µM | U-251 > 100 µM | SNB-75 > 100 µM

COc1ccc(-c2cc3ccccc3[nH]c2=O)cc1OC
inactive: COLO 205 > 100 µM | NCI-H522 > 100 µM | OVCAR-8 > 100 µM | LOX IMVI > 100 µM | NCI-H23 > 100 µM | HCT-116 > 100 µM | SF-539 > 100 µM | K562 > 100 µM | HT-29 > 100 µM | SW-620 > 100 µM | KM12 > 100 µM | RPMI-8226 > 100 µM | MOLT-4 > 100 µM | UO-31 > 100 µM | OVCAR-4 > 100 µM | OVCAR-5 > 100 µM | U-251 71.6 µM | SNB-75 > 100 µM

COc1ccc([C@H]2[C@@H]3CCc4ccccc4C3=NN2C(N)=S)cc1OC
inactive: NCI-H522 15.9 µM | OVCAR-8 74.3 µM | LOX IMVI 32.6 µM | NCI-H23 34.6 µM | HCT-116 47.9 µM | SF-539 > 100 µM | K562 22.4 µM | HT-29 40 µM | SW-620 58.2 µM | KM12 47.9 µM | RPMI-8226 37.9 µM | MOLT-4 31.1 µM | UO-31 36.1 µM | OVCAR-4 41.4 µM | OVCAR-5 > 100 µM | A498 > 100 µM | U-251 60.3 µM

CCC1(Cl)C(=O)NC(=O)N(C2CC(O)C(CO)O2)C1N=[N+]=[N-] (stereo not given)
inactive: COLO 205 > 100 µM | NCI-H522 > 100 µM | OVCAR-8 > 100 µM | LOX IMVI > 100 µM | NCI-H23 65.3 µM | SF-539 > 100 µM | K562 > 100 µM | HT-29 > 100 µM | SW-620 > 100 µM | RPMI-8226 > 100 µM | MOLT-4 > 100 µM | UO-31 > 100 µM | OVCAR-4 > 100 µM | OVCAR-5 > 100 µM | A498 > 100 µM | U-251 > 100 µM | SNB-75 > 100 µM

Cc1cn(C2CC3C(COCN3O)O2)c(=O)[nH]c1=O (stereo not given)
inactive: COLO 205 > 100 µM | OVCAR-8 > 100 µM | LOX IMVI > 100 µM | NCI-H23 > 100 µM | HCT-116 > 100 µM | SF-539 > 100 µM | K562 > 100 µM | HT-29 > 100 µM | SW-620 > 100 µM | KM12 > 100 µM | RPMI-8226 > 100 µM | MOLT-4 > 100 µM | UO-31 > 100 µM | OVCAR-4 > 100 µM | OVCAR-5 > 100 µM | U-251 > 100 µM | SNB-75 97.3 µM

COC(=O)c1cc2c3ccccc3n(C(C)=O)c2cn1
inactive: COLO 205 92.5 µM | NCI-H522 53.1 µM | OVCAR-8 56.4 µM | LOX IMVI 63.4 µM | NCI-H23 83.4 µM | HCT-116 > 100 µM | SF-539 > 100 µM | K562 59.2 µM | HT-29 > 100 µM | SW-620 > 100 µM | KM12 80.5 µM | RPMI-8226 45.4 µM | MOLT-4 41.6 µM | UO-31 > 100 µM | OVCAR-4 60 µM | OVCAR-5 > 100 µM | U-251 > 100 µM | SNB-75 25.6 µM
